Assay results as given in patent US6372297B1, “Wood preservative oxathiazines” (Uniroyal Chemical Company, Inc., priority 1993, dated 2002).

Assays:
[1] = system: mixed spore suspension: Aureobasidium pullulans, Aspergillus amstelodami, Ceratocystis pilifera, Cladosporium sp., Penicillium sp., Sclerophomas entoxylina …; test: Control of molds and sapstain fungi in mini-board test; set-up: key to Surface score of treated mini-boards, 3 week incubation, 1500 ppm / Surface score of treated mini-boards, 3 week incubation, 2500 ppm: 0: Free of fungal growth; 1: Traces of fungal growth; 2: Little fungal growth; 3: Moderate fungal growth; 4: Vigorous to maximum growth (all surfaces covered with fungal growth)
[2] = system: blue-stain fungi and molds; test: Activity against blue-stain fungi and molds on a stick test on vermiculite (paint film); set-up: key to Surface score of wooden sticks treated with paint formulation, C. cladosporioides / Surface score of wooden sticks treated with paint formulation, P. purpurogenum / Surface score of wooden sticks treated with paint formulation, P. violacea / Surface score of wooden sticks treated with paint formulation, R rubra (y) / Surface score of wooden sticks treated with paint formulation, S. chartarum / Surface score of wooden sticks treated with paint formulation, A. versicolor / Surface score of wooden sticks treated with paint formulation, A. pullulans: 0: No growth; Trace of growth of up to 1% coverage of the test inoculated area; 2: Growth covering between 1 and 10% of the inoculated test area; Growth covering between 10 and 30% of the inoculated test area; 4: Growth covering between 30 and 70% of the inoculated test area; 5: Growth covering more than 70t of the inoculated test area; conditions: 12 weeks on vermiculite; for Surface score of wooden sticks treated with paint formulation, R rubra (y): R rubra (yeast)
Procedure, shortened: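 Painted, γ-sterilised beech sticks dipped in spore suspensions of each fungus, then held on moist vermiculite for 12 weeks. Surface fungal growth scored visually on a 0 (none) to 5 (over 70% of inoculated area) scale.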

[3] = system: mixed spore suspension of blue-stain fungus and molds; test: Activity against blue-stain fungi and molds in a mold cabinet test (BS3900: Part G6); set-up: key: 0: No growth; Trace of growth of up to 1% coverage of the test inoculated area; 2: Growth covering between 1 and 10% of the inoculated test area; Growth covering between 10 and 30% of the inoculated test area; 4: Growth covering between 30 and 70% of the inoculated test area; 5: Growth covering more than 70t of the inoculated test area
Procedure, shortened: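 Painted Scots pine sticks, sterilized by irradiation, were treated with compound solutions, dipped in mixed spore suspension and held in a mold chamber for 12 weeks. Surface growth scored 0 (none) to 5 (>70% of inoculated area covered).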

[O-][S+]1CCON=C1c1cccs1 (stereo not drawn) [Compound 8]
Surface score of treated mini-boards, 3 week incubation, 1500 ppm [1]: 0
Surface score of treated mini-boards, 6 week incubation, 1500 ppm [1]: 0.8
Surface score of treated mini-boards, 3 week incubation, 2500 ppm [1]: 0
Surface score of treated mini-boards, 6 week incubation, 2500 ppm [1]: 0.4
Surface score of wooden sticks treated with paint formulation, A. pullulans ([2]; 0.15% a.i. in paint): 0
Surface score of wooden sticks treated with paint formulation, A. pullulans ([2]; 0.3% a.i. in paint): 0
Surface score of wooden sticks treated with paint formulation, A. versicolor ([2]; 0.15% a.i. in paint): 0
Surface score of wooden sticks treated with paint formulation, A. versicolor ([2]; 0.3% a.i. in paint): 0
Surface score of wooden sticks treated with paint formulation, C. cladosporioides ([2]; 0.15% a.i. in paint): 0
Surface score of wooden sticks treated with paint formulation, C. cladosporioides ([2]; 0.3% a.i. in paint): 0
Surface score of wooden sticks treated with paint formulation, P. purpurogenum ([2]; 0.15% a.i. in paint): 0
Surface score of wooden sticks treated with paint formulation, P. purpurogenum ([2]; 0.3% a.i. in paint): 0
Surface score of wooden sticks treated with paint formulation, P. violacea ([2]; 0.15% a.i. in paint): 4 (Growth covering between 30 and 70% of the inoculated test area)
Surface score of wooden sticks treated with paint formulation, P. violacea ([2]; 0.3% a.i. in paint): 0
Surface score of wooden sticks treated with paint formulation, R rubra (y) ([2]; 0.15% a.i. in paint): 1 (Trace of growth of up to 1% coverage of the test inoculated area)
Surface score of wooden sticks treated with paint formulation, R rubra (y) ([2]; 0.3% a.i. in paint): 1 (Trace of growth of up to 1% coverage of the test inoculated area)
Surface score of wooden sticks treated with paint formulation, S. chartarum ([2]; 0.15% a.i. in paint): 0
Surface score of wooden sticks treated with paint formulation, S. chartarum ([2]; 0.3% a.i. in paint): 0
Surface score of wooden sticks treated with paint formulation, U. atrum ([2]; 0.15% a.i. in paint): 1 (Trace of growth of up to 1% coverage of the test inoculated area)
Surface score of wooden sticks treated with paint formulation, U. atrum ([2]; 0.3% a.i. in paint): 1 (Trace of growth of up to 1% coverage of the test inoculated area)
Surface score in a paint formulation in a mold cabinet test, 6 weeks ([3]; 0.15% in water-based paint): 0
Surface score in a paint formulation in a mold cabinet test, 12 weeks ([3]; 0.15% in water-based paint): 2.0
Surface score in a paint formulation in a mold cabinet test, 6 weeks ([3]; 0.3% in water-based paint): 0
Surface score in a paint formulation in a mold cabinet test, 12 weeks ([3]; 0.3% in water-based paint): 1.5

O=S1(=O)CCON=C1c1cccs1 [Compound 34]
Surface score of treated mini-boards, 3 week incubation, 1500 ppm [1]: 0
Surface score of treated mini-boards, 6 week incubation, 1500 ppm [1]: 2.4
Surface score of treated mini-boards, 3 week incubation, 2500 ppm [1]: 0
Surface score of treated mini-boards, 6 week incubation, 2500 ppm [1]: 2.4
Surface score of wooden sticks treated with paint formulation, A. pullulans ([2]; 0.15% a.i. in paint): 0
Surface score of wooden sticks treated with paint formulation, A. pullulans ([2]; 0.3% a.i. in paint): 0
Surface score of wooden sticks treated with paint formulation, A. versicolor ([2]; 0.15% a.i. in paint): 0
Surface score of wooden sticks treated with paint formulation, A. versicolor ([2]; 0.3% a.i. in paint): 0
Surface score of wooden sticks treated with paint formulation, C. cladosporioides ([2]; 0.15% a.i. in paint): 0
Surface score of wooden sticks treated with paint formulation, C. cladosporioides ([2]; 0.3% a.i. in paint): 0
Surface score of wooden sticks treated with paint formulation, P. purpurogenum ([2]; 0.15% a.i. in paint): 4 (Growth covering between 30 and 70% of the inoculated test area)
Surface score of wooden sticks treated with paint formulation, P. purpurogenum ([2]; 0.3% a.i. in paint): 1 (Trace of growth of up to 1% coverage of the test inoculated area)
Surface score of wooden sticks treated with paint formulation, P. violacea ([2]; 0.15% a.i. in paint): 4 (Growth covering between 30 and 70% of the inoculated test area)
Surface score of wooden sticks treated with paint formulation, P. violacea ([2]; 0.3% a.i. in paint): 1 (Trace of growth of up to 1% coverage of the test inoculated area)
Surface score of wooden sticks treated with paint formulation, R rubra (y) ([2]; 0.15% a.i. in paint): 3 (Growth covering between 10 and 30% of the inoculated test area)
Surface score of wooden sticks treated with paint formulation, R rubra (y) ([2]; 0.3% a.i. in paint): 0
Surface score of wooden sticks treated with paint formulation, S. chartarum ([2]; 0.15% a.i. in paint): 1 (Trace of growth of up to 1% coverage of the test inoculated area)
Surface score of wooden sticks treated with paint formulation, S. chartarum ([2]; 0.3% a.i. in paint): 0
Surface score of wooden sticks treated with paint formulation, U. atrum ([2]; 0.15% a.i. in paint): 3 (Growth covering between 10 and 30% of the inoculated test area)
Surface score of wooden sticks treated with paint formulation, U. atrum ([2]; 0.3% a.i. in paint): 1 (Trace of growth of up to 1% coverage of the test inoculated area)
Surface score in a paint formulation in a mold cabinet test, 6 weeks ([3]; 0.15% in water-based paint): 0.5
Surface score in a paint formulation in a mold cabinet test, 12 weeks ([3]; 0.15% in water-based paint): 1.5
Surface score in a paint formulation in a mold cabinet test, 6 weeks ([3]; 0.3% in water-based paint): 0
Surface score in a paint formulation in a mold cabinet test, 12 weeks ([3]; 0.3% in water-based paint): 1.0
